According to ChEMBL document CHEMBL4152332, “Discovery and synthesis of novel magnolol derivatives with potent anticancer activity in non-small cell lung cancer” (Eur J Med Chem, 2018):

Tests used:
NCI-H460 = experiment: Antiproliferative activity against human H460 cells after 72 hrs by MTT assay; format: functional, cell-based; details: NCI-H460, 72 h
HCC827 = experiment: Antiproliferative activity against human HCC827 cells after 72 hrs by MTT assay; format: functional, cell-based; details: HCC827, 72 h
NCI-H1975 = experiment: Antiproliferative activity against human NCI-H1975 cells after 72 hrs by MTT assay; format: functional, cell-based; details: NCI-H1975, 72 h
NCI-H358 = experiment: Antiproliferative activity against human NCI-H358 cells after 72 hrs by MTT assay; format: functional, cell-based; details: NCI-H358, 72 h
[1] = Apparent aqueous solubility of the compound by HPLC analysis; format: physicochemical; details: aqueous solution
A549 = experiment: Antiproliferative activity against human A549 cells after 72 hrs by MTT assay; format: functional, cell-based; details: A549, 72 h
[2] = Antiproliferative activity against human SPC-A1 cells after 72 hrs by MTT assay; format: functional, cell-based; details: SPCA1, 72 h
PC-9 = experiment: Antiproliferative activity against human PC9 cells after 72 hrs by MTT assay; format: functional, cell-based; details: PC-9, 72 h
NCI-H441 = experiment: Antiproliferative activity against human H441 cells after 72 hrs by MTT assay; format: functional, cell-based; details: NCI-H441, 72 h
NCI-H1650 = experiment: Antiproliferative activity against human NCI-H1650 cells after 72 hrs by MTT assay; format: functional, cell-based; details: NCI-H1650, 72 h

Row | Structure (SMILES) | IC50 (NCI-H460) | IC50 (HCC827) | IC50 (NCI-H1975) | other results
1 | C=CCc1ccc(O)c(-c2cc(CC=C)cc(CN3CCCC(C)C3)c2O)c1 (centres undefined) | > 20 µM | > 20 µM | > 20 µM | –
2 | C=CCc1ccc(O)c(-c2ccc(O)c(/C=C/C)c2)c1 | 25.3 µM | 26.4 µM | 25.8 µM | –
3 | C=CCc1ccc(O)c(-c2cc(CC=C)cc(CN3CCN(C(=O)C4CC4)CC3)c2O)c1 | > 20 µM | > 20 µM | > 20 µM | –
4 | C=CCc1ccc(O)c(-c2ccc(O)c(CC(O)CO)c2)c1 (centres undefined) | > 40 µM | > 40 µM | > 40 µM | –
5 | C=CCc1ccc(O)c(-c2cc(CC=C)cc(CN3CCCC(NC(=O)C=C)C3)c2O)c1 (centres undefined) | > 20 µM | > 20 µM | > 20 µM | –
6 | C=CCc1ccc(O)c(-c2cc(CC=C)cc(CN3CCN(CCCC)CC3)c2O)c1 | > 20 µM | > 20 µM | > 20 µM | –
7 | C=CCc1ccc(O)c(-c2cc(CC=C)cc(CN3CCN(Cc4ccccc4)CC3)c2O)c1 | > 20 µM | > 20 µM | > 20 µM | –
8 | C=CCc1cc(-c2cc(C=O)ccc2O)ccc1O [MAGNALEDEHYDE E] | > 40 µM | > 40 µM | > 40 µM | –
9 | C=CCc1ccc(O)c(-c2cc(CC=C)cc(CN3CCC(NC(=O)OC(C)(C)C)CC3)c2O)c1 | 17.5 µM | 12.9 µM | 15.8 µM | –
10 | C=CCc1ccc(O)c(-c2cc(CC=C)ccc2O)c1 [MAGNOLOL] | > 40 µM | > 40 µM | > 40 µM | IC50 (NCI-H358): 61.2 µM; solubility [1]: < 10 µg/mL; IC50 (A549): 57.4 µM; IC50 [2]: 78.2 µM; IC50 (PC-9): 69 µM; IC50 (NCI-H441): 58.7 µM; IC50 (NCI-H1650): 56.6 µM
11 | C=CCc1cc(-c2ccc(O)c(CC=C)c2)c(O)c([C@@H]2C=C(C)CC[C@H]2C(C)C)c1 | 27.6 µM | 31.4 µM | 26.7 µM | –
12 | C=CCc1ccc(O)c(-c2cc(C(=O)O)ccc2O)c1 | > 40 µM | > 40 µM | > 40 µM | –
13 | C=CCc1ccc(O)c(-c2cc(CC=C)cc(CN3CCCCC3)c2O)c1 | > 20 µM | > 20 µM | > 20 µM | –
14 | C=CCc1cc(-c2cc(/C=C/CO)ccc2O)c(O)c([C@@H]2C=C(C)CC[C@H]2C(C)C)c1 | > 40 µM | > 40 µM | > 40 µM | –
15 | C=CCc1ccc(O)c(-c2cc(CC=C)cc(CN3CCN(C(=O)OC(C)(C)C)CC3)c2O)c1 | > 20 µM | > 20 µM | > 20 µM | –
16 | C=CCc1ccc(O)c(-c2cc(CC=C)cc(CN3CCN(CC=C)CC3)c2O)c1 | > 20 µM | > 20 µM | > 20 µM | –
17 | C=CCc1cc(-c2cc(/C=C/C=O)ccc2O)ccc1O [MAGNALEDEHYDE B] | 32.4 µM | 35.5 µM | 34.1 µM | –
18 | C=CCc1ccc(O)c(-c2cc(CC=C)cc(CN3CCN(C(C)C)CC3)c2O)c1 | > 20 µM | > 20 µM | > 20 µM | –
19 | C=CCc1cc(-c2cc(C(=O)O)ccc2O)ccc1O | > 40 µM | > 40 µM | > 40 µM | –
20 | C=CCc1cc(-c2cc(CC=C)cc([C@@H]3C=C(C)CC[C@H]3C(C)C)c2O)c(O)c([C@@H]2C=C(C)CC[C@H]2C(C)C)c1 | > 40 µM | > 40 µM | > 40 µM | –
21 | C=CCc1ccc(O)c(-c2cc(CC=C)cc(CN3CCN(C=O)CC3)c2O)c1 | > 20 µM | > 20 µM | > 20 µM | –
22 | C=CCc1ccc(O)c(-c2cc(CC=C)cc(CN3CCC(CN)CC3)c2O)c1 | > 20 µM | > 20 µM | > 20 µM | –
23 | C=CCc1ccc(O)c(-c2cc(CC=C)cc(CN3CCSCC3)c2O)c1 | > 20 µM | > 20 µM | > 20 µM | –
24 | C=CCc1ccc(O)c(-c2cc(CC=C)cc(CN3CCCC(CO)C3)c2O)c1 (centres undefined) | > 20 µM | > 20 µM | > 20 µM | –

Row | Structure (SMILES) | IC50 (NCI-H460) | IC50 (HCC827) | IC50 (NCI-H1975) | other results
25 | C=CCc1ccc(O)c(-c2cc(CC(O)CO)ccc2O)c1 (centres undefined) | > 40 µM | > 40 µM | > 40 µM | –
26 | C=CCc1ccc(O)c(-c2cc(O)ccc2O)c1 [RANDAIOL] | > 40 µM | > 40 µM | > 40 µM | –
27 | C=CCc1cc(-c2cc(O)ccc2O)ccc1O [MAGNATRIOL B] | > 40 µM | > 40 µM | > 40 µM | –
28 | C=CCc1ccc(O)c(-c2cc(CC=C)cc(CN3CCC(C(=O)OCC)CC3)c2O)c1 | > 20 µM | > 20 µM | > 20 µM | –
29 | C=CCc1ccc(O)c(-c2cc(CC=C)cc(CN3CCOCC3)c2O)c1 | > 20 µM | > 20 µM | > 20 µM | –
30 | C=CCc1ccc(O)c(-c2cc(CC=C)cc([C@@H]3C=C(C)CC[C@H]3C(C)C)c2O)c1 | 18.6 µM | 15.8 µM | 16.6 µM | solubility [1]: < 10 µg/mL
31 | C=CCc1ccc(O)c(-c2cc(CC=C)cc(CN3CCN(CCO)CC3)c2O)c1 | 17.4 µM | 18.9 µM | 16.5 µM | –
32 | C=CCc1cc(-c2cc(/C=C/CO)ccc2O)ccc1O | 31.6 µM | 33.6 µM | 34.5 µM | –
33 | C=CCc1ccc(O)c(-c2cc(CC=C)cc(CN3CCNCC3)c2O)c1 | > 20 µM | > 20 µM | > 20 µM | –
34 | OCC(O)Cc1ccc(O)c(-c2cc(CC(O)CO)ccc2O)c1 (centres undefined) | > 40 µM | > 40 µM | > 40 µM | –
35 | C=CCc1ccc(O)c(-c2cc(CC=C)cc(CN3CCCC(NC(=O)OC(C)(C)C)C3)c2O)c1 (centres undefined) | 16.4 µM | 15.5 µM | 13.9 µM | –
36 | C=CCc1ccc(O)c(-c2cc(CC=C)cc(CN3CCC(CNC(=O)OC(C)(C)C)CC3)c2O)c1 | > 20 µM | > 20 µM | > 20 µM | –
37 | C=CCc1ccc(O)c(-c2cc(CC=C)cc(CN3CCCC(C(=O)OCC)C3)c2O)c1 (centres undefined) | > 20 µM | > 20 µM | > 20 µM | –
38 | C=CCc1ccc(O)c(-c2cc(CC=C)cc(CN3CCN(c4ccccc4)CC3)c2O)c1 | > 20 µM | > 20 µM | > 20 µM | –
39 | C=CCc1ccc(O)c(-c2ccc(O)c(CC3CO3)c2)c1 (centres undefined) | > 40 µM | > 40 µM | > 40 µM | –
40 | C=CCc1ccc(O)c(-c2cc(CC=C)cc(CN3CCN(C(C)=O)CC3)c2O)c1 | > 20 µM | > 20 µM | > 20 µM | –
41 | C=CCc1ccc(O)c(-c2cc(CC=C)cc(CN3CCN(CCCO)CC3)c2O)c1 | > 20 µM | > 20 µM | > 20 µM | –
42 | C=CCc1ccc(O)c(-c2cc(CC=C)cc(CN3CCN(C(=O)N(C)C)CC3)c2O)c1 | > 20 µM | > 20 µM | > 20 µM | –
43 | C=CCc1ccc(O)c(-c2cc(CC=C)cc(CN3CCN(C(=O)OCC)CC3)c2O)c1 | > 20 µM | > 20 µM | > 20 µM | –
44 | C=CCc1ccc(O)c(-c2cc(CC=C)cc(CN3CCN(C)CC3)c2O)c1 | > 20 µM | > 20 µM | > 20 µM | –
45 | C=CCc1cc(-c2cc(CC(O)CO)ccc2O)ccc1O (centres undefined) [MAGNOLIGNAN] | > 40 µM | > 40 µM | > 40 µM | –
46 | C=CCc1ccc(O)c(-c2cc(CC=C)cc(CN3CCC(NC(=O)C=C)CC3)c2O)c1 | > 20 µM | > 20 µM | > 20 µM | –
47 | C=CCc1ccc(O)c(-c2cc(/C=C/CO)ccc2O)c1 | > 40 µM | > 40 µM | > 40 µM | –
